In ChEMBL document CHEMBL4602637, “Synthesis and biological evaluation of novel pyrazolo[1,5-a]pyrimidines: Discovery of a selective inhibitor of JAK1 JH2 pseudokinase and VPS34” (Bioorg Med Chem Lett, 2020):
Calls of active or inactive are those of the source. No cut-off for these calls is given here.

Legend:
A2780 [1] = assay: Antimitotic activity against human A2780 cells at 10 uM by ATP lite luminescence assay; assay type: functional, cell-based
A2780 [2] = assay: Antimitotic activity against human A2780 cells by ATP lite luminescence assay; assay type: functional, cell-based
MCF7 [3] = assay: Antimitotic activity against human MCF7 cells by ATP lite luminescence assay; assay type: functional, cell-based
[4] = biological target: T1, Phosphatidylinositol 3-kinase catalytic subunit type 3 (Homo sapiens, UniProt Q8NEB9); assay: Binding affinity to wild-type human partial length PIK3C3 (S282 to H879 residues) expressed in mammalian expression system at 10 uM by Kinomescan method relative to control
T1 sequence (Q8NEB9 whole entry, the tested form may be a part): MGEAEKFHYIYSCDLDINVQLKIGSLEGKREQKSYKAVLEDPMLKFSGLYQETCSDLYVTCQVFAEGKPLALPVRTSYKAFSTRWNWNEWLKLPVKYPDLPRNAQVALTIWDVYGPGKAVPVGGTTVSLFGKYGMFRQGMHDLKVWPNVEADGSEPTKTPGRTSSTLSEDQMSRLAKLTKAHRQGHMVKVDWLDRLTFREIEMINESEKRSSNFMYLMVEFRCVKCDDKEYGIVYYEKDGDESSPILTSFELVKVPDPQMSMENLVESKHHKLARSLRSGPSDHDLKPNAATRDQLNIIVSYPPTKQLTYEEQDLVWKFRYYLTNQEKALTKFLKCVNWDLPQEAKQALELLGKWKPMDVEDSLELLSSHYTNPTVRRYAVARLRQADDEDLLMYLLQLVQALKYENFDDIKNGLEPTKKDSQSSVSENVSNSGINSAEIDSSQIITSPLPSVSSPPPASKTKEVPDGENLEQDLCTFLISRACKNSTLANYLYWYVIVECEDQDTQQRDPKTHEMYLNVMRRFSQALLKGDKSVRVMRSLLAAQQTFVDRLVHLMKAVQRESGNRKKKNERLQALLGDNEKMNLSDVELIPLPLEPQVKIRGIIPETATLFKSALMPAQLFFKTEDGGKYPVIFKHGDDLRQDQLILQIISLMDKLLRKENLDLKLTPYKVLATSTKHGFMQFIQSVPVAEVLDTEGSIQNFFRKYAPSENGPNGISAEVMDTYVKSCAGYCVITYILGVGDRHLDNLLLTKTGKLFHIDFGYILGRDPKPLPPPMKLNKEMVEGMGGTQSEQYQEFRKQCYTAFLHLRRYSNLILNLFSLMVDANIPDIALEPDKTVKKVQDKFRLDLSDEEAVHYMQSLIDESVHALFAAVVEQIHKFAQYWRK

[5] = biological target: T2, Dual specificity mitogen-activated protein kinase kinase 5 (Homo sapiens) (UniProt Q13163); assay: Inhibition of wild-type human partial length MEK5 (L98 to P448 residues) expressed in mammalian expression system assessed as enzyme residual activity at 10 uM by Kinomescan method relative to control
T2 sequence (whole entry): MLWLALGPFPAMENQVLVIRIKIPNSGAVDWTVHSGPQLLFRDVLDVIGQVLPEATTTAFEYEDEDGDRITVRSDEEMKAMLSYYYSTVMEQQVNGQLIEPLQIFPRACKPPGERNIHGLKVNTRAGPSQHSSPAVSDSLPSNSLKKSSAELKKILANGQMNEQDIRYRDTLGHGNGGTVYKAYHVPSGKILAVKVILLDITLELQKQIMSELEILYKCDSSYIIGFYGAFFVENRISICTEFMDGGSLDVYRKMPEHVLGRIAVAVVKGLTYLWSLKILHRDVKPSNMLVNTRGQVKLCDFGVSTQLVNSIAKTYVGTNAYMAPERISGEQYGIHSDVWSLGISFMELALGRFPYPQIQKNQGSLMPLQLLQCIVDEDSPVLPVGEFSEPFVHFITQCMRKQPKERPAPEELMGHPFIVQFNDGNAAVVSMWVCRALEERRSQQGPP

[6] = biological target: Non-receptor tyrosine-protein kinase TYK2 (Homo sapiens) (UniProt P29597); assay: Inhibition of wild-type human partial length TYK2 JH2 pseudokinase domain (G556 to D888 residues) expressed in mammalian expression system assessed as enzyme residual activity at 10 uM by Kinomescan method relative to control
Non-receptor tyrosine-protein kinase TYK2 (Homo sapiens), sequence (P29597 whole entry, the tested form may be a part): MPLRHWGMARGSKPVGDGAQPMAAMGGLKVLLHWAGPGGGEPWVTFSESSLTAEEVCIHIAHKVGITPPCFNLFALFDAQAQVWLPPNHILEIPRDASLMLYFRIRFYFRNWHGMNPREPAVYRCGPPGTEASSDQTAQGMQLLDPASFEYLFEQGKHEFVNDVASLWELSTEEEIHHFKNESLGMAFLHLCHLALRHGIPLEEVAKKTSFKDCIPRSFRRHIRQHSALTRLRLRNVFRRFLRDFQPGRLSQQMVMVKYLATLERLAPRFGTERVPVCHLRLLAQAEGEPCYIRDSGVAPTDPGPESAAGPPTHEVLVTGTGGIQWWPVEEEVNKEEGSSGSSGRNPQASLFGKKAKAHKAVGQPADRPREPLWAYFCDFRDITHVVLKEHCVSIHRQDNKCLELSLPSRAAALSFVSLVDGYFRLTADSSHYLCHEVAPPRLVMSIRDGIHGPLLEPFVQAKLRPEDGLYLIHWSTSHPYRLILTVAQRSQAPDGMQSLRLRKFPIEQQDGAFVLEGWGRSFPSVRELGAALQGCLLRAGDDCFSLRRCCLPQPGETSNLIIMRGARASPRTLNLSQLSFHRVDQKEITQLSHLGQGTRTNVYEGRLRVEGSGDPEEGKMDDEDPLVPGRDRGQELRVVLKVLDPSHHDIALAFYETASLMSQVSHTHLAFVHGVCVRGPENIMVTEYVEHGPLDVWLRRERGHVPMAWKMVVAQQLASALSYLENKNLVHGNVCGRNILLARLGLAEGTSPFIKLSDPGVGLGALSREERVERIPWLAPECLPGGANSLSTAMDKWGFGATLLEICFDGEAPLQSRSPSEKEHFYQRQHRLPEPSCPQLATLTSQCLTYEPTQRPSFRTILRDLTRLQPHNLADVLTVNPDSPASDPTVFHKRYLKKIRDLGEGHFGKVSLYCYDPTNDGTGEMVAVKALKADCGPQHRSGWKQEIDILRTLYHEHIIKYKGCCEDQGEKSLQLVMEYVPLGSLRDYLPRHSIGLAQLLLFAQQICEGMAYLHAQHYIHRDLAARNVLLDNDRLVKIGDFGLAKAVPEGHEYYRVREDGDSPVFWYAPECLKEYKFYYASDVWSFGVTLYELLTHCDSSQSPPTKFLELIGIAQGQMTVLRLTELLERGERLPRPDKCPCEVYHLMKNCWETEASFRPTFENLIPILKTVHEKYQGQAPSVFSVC

[7] = biological target: T1, Phosphatidylinositol 3-kinase catalytic subunit type 3; assay: Inhibition of wild-type human partial length PIK3C3 (S282 to H879 residues) expressed in mammalian expression system assessed as enzyme residual activity at 10 uM by Kinomescan method relative to control
[8] = biological target: T3, Tyrosine-protein kinase JAK1 (Homo sapiens, UniProt P23458); assay: Binding affinity to wild-type human partial length JAK1 JH2 pseudokinase domain (R537 to D855 residues) expressed in mammalian expression system at 10 uM by Kinomescan method relative to control
T3 sequence (P23458 whole entry, the tested form may be a part): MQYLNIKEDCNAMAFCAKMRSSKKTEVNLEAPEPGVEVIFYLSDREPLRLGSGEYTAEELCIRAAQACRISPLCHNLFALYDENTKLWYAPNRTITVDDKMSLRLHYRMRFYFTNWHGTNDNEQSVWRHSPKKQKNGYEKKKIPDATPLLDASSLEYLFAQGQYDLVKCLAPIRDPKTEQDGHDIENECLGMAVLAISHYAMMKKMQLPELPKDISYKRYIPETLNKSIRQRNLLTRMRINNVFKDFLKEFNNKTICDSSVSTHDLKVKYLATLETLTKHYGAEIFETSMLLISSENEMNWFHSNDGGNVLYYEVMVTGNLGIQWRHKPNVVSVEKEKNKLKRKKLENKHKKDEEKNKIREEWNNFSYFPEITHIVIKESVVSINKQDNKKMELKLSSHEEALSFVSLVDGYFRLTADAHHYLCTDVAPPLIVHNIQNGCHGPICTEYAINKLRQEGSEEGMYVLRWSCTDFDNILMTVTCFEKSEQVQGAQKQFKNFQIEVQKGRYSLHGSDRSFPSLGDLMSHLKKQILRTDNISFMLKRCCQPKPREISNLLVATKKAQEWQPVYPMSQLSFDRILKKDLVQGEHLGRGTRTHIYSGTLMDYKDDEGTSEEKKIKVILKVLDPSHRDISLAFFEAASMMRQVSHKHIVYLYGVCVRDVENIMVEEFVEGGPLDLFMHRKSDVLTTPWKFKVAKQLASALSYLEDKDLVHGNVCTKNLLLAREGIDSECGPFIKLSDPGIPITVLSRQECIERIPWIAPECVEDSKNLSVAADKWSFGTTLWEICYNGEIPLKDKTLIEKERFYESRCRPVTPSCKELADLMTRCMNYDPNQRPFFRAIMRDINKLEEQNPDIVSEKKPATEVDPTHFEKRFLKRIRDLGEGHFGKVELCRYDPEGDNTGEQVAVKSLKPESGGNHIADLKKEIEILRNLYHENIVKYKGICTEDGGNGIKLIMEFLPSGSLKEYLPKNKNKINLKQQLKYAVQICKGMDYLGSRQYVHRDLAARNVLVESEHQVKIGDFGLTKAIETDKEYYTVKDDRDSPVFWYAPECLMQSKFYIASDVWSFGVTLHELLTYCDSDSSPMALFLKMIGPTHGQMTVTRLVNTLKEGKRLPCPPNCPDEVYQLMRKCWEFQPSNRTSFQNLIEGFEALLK

[9] = biological target: T3, Tyrosine-protein kinase JAK1; assay: Inhibition of wild-type human partial length JAK1 JH2 pseudokinase domain (R537 to D855 residues) expressed in mammalian expression system assessed as enzyme residual activity at 10 uM by Kinomescan method relative to control
Homo sapiens = organism: Homo sapiens; assay: Ratio for inhibition of wild-type human partial length TYK2 JH2 pseudokinase domain (G556 to D888 residues) expressed in mammalian expression system at 10 uM by Kinomescan method relative to control to inhibition of wild-type human partial length JAK1 JH2 pseudokinase domain (R537 to D855 residues) expressed in mammalian expression system at 10 uM by Kinomescan method relative to control
[10] = biological target: T4, Ephrin type-B receptor 6 (Homo sapiens) (UniProt O15197); assay: Inhibition of wild-type human partial length EPHB6 (Q634 to P948 residues) expressed in mammalian expression system assessed as enzyme residual activity at 10 uM by Kinomescan method relative to control
T4 sequence (whole entry): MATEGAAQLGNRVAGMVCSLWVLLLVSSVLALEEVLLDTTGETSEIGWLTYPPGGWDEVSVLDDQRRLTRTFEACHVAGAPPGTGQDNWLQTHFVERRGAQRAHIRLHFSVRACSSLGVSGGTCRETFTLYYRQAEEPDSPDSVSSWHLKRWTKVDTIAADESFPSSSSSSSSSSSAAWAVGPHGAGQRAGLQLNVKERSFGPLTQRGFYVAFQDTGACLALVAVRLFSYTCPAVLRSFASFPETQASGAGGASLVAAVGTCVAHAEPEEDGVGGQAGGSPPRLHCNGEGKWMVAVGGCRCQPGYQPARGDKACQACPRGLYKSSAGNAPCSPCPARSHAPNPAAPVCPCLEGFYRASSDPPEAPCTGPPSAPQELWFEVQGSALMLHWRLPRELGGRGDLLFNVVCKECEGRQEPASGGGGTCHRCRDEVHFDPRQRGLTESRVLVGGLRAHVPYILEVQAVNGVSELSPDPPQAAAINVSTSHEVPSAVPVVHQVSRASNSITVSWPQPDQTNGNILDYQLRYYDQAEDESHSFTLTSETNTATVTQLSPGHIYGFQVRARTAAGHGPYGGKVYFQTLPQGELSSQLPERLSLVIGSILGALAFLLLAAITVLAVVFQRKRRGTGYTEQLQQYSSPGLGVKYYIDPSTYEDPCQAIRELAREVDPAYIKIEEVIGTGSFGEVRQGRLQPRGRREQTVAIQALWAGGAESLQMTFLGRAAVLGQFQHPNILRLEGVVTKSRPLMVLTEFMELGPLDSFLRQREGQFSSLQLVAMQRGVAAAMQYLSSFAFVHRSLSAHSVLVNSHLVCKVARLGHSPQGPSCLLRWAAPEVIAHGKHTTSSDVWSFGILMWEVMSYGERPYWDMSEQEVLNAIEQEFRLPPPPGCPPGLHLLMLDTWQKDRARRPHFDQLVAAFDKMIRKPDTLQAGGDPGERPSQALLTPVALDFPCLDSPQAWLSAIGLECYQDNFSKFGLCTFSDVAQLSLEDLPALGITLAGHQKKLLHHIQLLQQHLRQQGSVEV

MCF7 [11] = assay: Ratio of EC50 for dorsomorphin to EC50 for test compound for antimitotic activity against human MCF7 cells by ATP lite luminescence assay; assay type: functional
A2780 [12] = assay: Ratio of EC50 for dorsomorphin to EC50 for test compound for antimitotic activity against human A2780 cells by ATP lite luminescence assay; assay type: functional

| EC50 (A2780 [2]) | EC50 (MCF7 [3]) | SMILES | Activity (A2780 [1]) | further results |
| --- | --- | --- | --- | --- |
| 950 nM |  | CN1CCN(CCOc2ccc(-c3cnc4c(-c5cccc(F)c5)cnn4c3)cc2)CC1 | Active |  |
| 1100 nM |  | CN1CCN(CCOc2ccc(-c3cnc4c(-c5ccc(F)cc5)cnn4c3)cc2)CC1 | Active |  |
| 2300 nM | 1600 nM | FC(F)(F)c1ccc(-c2cnn3cc(-c4ccc(OCCN5CCCCC5)cc4)cnc23)cc1 | Active |  |
| 900 nM |  | c1ccc2sc(-c3cnn4cccnc34)nc2c1 | Active | Kd [4]: 410 nM; Activity [5]: 3.9%; Activity [6]: 5%; Activity [7]: 0.9%; Kd [8]: 550 nM; Activity [9]: 0.8%; Ratio (Homo sapiens): 6; Activity [10]: 9.9% |
| 1400 nM | 4300 nM | Fc1cccc(-c2cnn3cc(-c4ccc(OCCN5CCCCC5)cc4)cnc23)c1F | Active |  |
| 1200 nM | 2200 nM | Fc1cccc(-c2cnn3cc(-c4ccc(OCCN5CCCCC5)cc4)cnc23)c1 | Active | Activity [6]: < 10%; Activity [7]: 100%; Activity [9]: 41%; Activity [10]: < 10% |
| 930 nM | 3600 nM | Fc1ccc(-c2cnn3cc(-c4ccc(OCCN5CCCCC5)cc4)cnc23)cc1 | Active |  |
| 840 nM |  | CN1CCN(CCOc2ccc(-c3cnc4c(-c5cccc(F)c5F)cnn4c3)cc2)CC1 | Active |  |
| 2900 nM |  | CN1CCN(CCOc2ccc(-c3cnc4c(-c5ccc(C(F)(F)F)cc5)cnn4c3)cc2)CC1 | Active |  |
| 2700 nM | 2800 nM | Fc1ccccc1-c1cnn2cc(-c3ccc(OCCN4CCCCC4)cc3)cnc12 | Active |  |
| 520 nM |  | CN1CCN(CCOc2ccc(-c3cnc4c(-c5ccccc5F)cnn4c3)cc2)CC1 | Active | Ratio EC50 (MCF7 [11]): 3; Ratio EC50 (A2780 [12]): 2 |

| SMILES | EC50 (A2780 [2]) | EC50 (MCF7 [3]) | Activity (A2780 [1]) | further results |
| --- | --- | --- | --- | --- |
| c1cc(-c2cnn3cc(-c4ccc(OCCN5CCCCC5)cc4)cnc23)ccn1 [DORSOMORPHIN] | 900 to 1100 nM | 4900 nM |  |  |
